# According to PubChem BioAssay (NCI):
#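 Growth conditions: 96-well plates. Treatment: test compound, 48 hours, 5 concentrations. Analysis: linear interpolation between bracketing concentrations; unreached endpoints set to highest concentration. GI50: concentration for 50% inhibition of growth. TGI: concentration producing complete growth inhibition.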
# How the values were obtained:
# Experiment in all cases: NCI tumour cell line growth inhibition, 48 h
# MDA-MB-231 breast = tested on: MDA-MB-231 breast
# UACC-257 melanoma = tested on: UACC-257 melanoma
# HOP-62 NSCLC = tested on: HOP-62 NSCLC
# NCI-H23 lung = tested on: NCI-H23 lung
# T-47D breast = tested on: T-47D breast
# RPMI-8226 leukemia = tested on: RPMI-8226 leukemia
# OVCAR-3 ovarian = tested on: OVCAR-3 ovarian
# SK-MEL-5 melanoma = tested on: SK-MEL-5 melanoma
# HL-60(TB) leukemia = tested on: HL-60(TB) leukemia
# MOLT-4 leukemia = tested on: MOLT-4 leukemia
Structure (SMILES),GI50 (MDA-MB-231 breast) [µM],TGI (MDA-MB-231 breast) [µM],GI50 (UACC-257 melanoma) [µM],TGI (UACC-257 melanoma) [µM],GI50 (HOP-62 NSCLC) [µM],TGI (HOP-62 NSCLC) [µM],GI50 (NCI-H23 lung) [µM],TGI (NCI-H23 lung) [µM],GI50 (T-47D breast) [µM],TGI (T-47D breast) [µM],GI50 (RPMI-8226 leukemia) [µM],TGI (RPMI-8226 leukemia) [µM],GI50 (OVCAR-3 ovarian) [µM],TGI (OVCAR-3 ovarian) [µM],GI50 (SK-MEL-5 melanoma) [µM],TGI (SK-MEL-5 melanoma) [µM],GI50 (HL-60(TB) leukemia) [µM],TGI (HL-60(TB) leukemia) [µM],GI50 (MOLT-4 leukemia) [µM],TGI (MOLT-4 leukemia) [µM]
CCOC1OC(=O)[C@H]2[C@@H]1[C@@H]1CC[C@H]2O1 (stereo partly drawn),> 100,> 100,> 100,> 100,> 100,> 100,> 100,> 100,> 59.1,> 100,> 29.3,> 100,> 100,> 100,> 100,> 100,> 100,> 100,> 100,> 100
NNc1c2ccccc2nc2ccccc12,10.7,48.6,4.06,36.2,5.56,79,1.37,33,6.08,73.4,0.558,17.4,5.85,27.3,2.14,13.3,1.78,16.9,0.897,> 100
O=[N+]([O-])c1ccc2c(Nc3ccccc3-c3ccccc3Nc3c4ccccc4nc4cc([N+](=O)[O-])ccc34)c3ccccc3nc2c1,,6.38,,49.8,,41.4,,34.7,,20.3,,> 39.9,,29.1,,8.09,,15.1,,50.4
CC(=O)OC(C)C(OC(C)=O)C(OC(C)=O)C(/C=C/C1CC=CC(=O)O1)OC(C)=O (stereo not drawn),21.8,53.6,19.5,42.1,37.8,> 100,31.3,98,27.3,80.1,26.7,83.5,30.8,95.5,26.3,> 100,20.4,43.3,29.2,97.5
O=C(Nc1cnc(C(F)(F)F)cn1)c1cc(Cl)ccc1O,0.27,0.946,0.267,0.781,0.266,2.35,0.257,1.22,0.238,0.851,0.273,2.75,0.279,20.3,0.131,0.336,0.279,0.654,0.352,1.78
O=c1cccc(C#CC#CCCCO)o1,1.99,4.82,3.48,15.8,6.26,12.2,4.17,11.7,3.64,27.3,,> 26.7,1.93,4.94,12.3,27.3,2.24,5.39,4.82,> 28.8
CCOC(=O)C1=C(C)N2C(=NC3=C(CCC/C3=C\c3ccc(Cl)cc3)C2c2ccc(Cl)cc2)S1 (stereo not drawn),3.06,16.6,2.05,5.18,2.55,5.38,2.03,5.26,3.61,28.3,1.22,4.04,2.36,5.61,2.93,11.4,3.09,9.24,3.06,9.27
Cc1cccc2c(Nc3ccc(NS(C)(=O)=O)cc3)c3ccc([N+](=O)[O-])cc3nc12,2.05,5.42,1.53,4.6,0.373,4.87,1.25,4.31,0.147,9.32,1.09,7.56,1.45,4.91,0.487,1.99,2.07,7.09,0.3,6.09
C=C1CC[C@@H]2[C@](C)(COC(C)=O)[C@H](OC(C)=O)CC[C@@]2(C)[C@@H]1CC(Nc1ccc(S(=O)(=O)Nc2nccs2)cc1)C1=CCOC1=O (stereo partly drawn),3.31,8.25,2.55,5.61,13.8,27.5,10,24.8,3.39,20.8,2.49,7.62,1.88,3.64,4.79,17.1,3.01,13.3,3.68,73.2
COc1cc(C2CC(=O)Nc3c2cc(Br)c2ccccc32)cc(Br)c1OC (stereo not drawn),2.66,7.42,12.6,> 100,1.45,3.9,4.37,> 100,1.61,5.26,3.71,> 100,1.14,2.52,2.82,> 100,1.06,3.98,2.78,> 47.6
Nc1n[nH]c(N)c1N=Nc1ccc(O)cc1,16.8,82.8,24.4,85.1,31.8,> 100,19.1,62.3,14.2,87.5,14.4,54.3,22.7,69.7,13.9,30.9,6.44,35.4,13.5,91
COc1ccc(Oc2ccccc2NC(=O)CNC(=O)c2cccc3ccccc23)cc1,2.25,> 25,> 25,> 25,0.717,> 25,1.28,> 25,2.52,19.6,1.13,8.45,0.387,> 25,0.377,8.41,0.613,1.71,0.96,> 25
NC(=O)c1cccc(-c2cc(C(N)=O)ccc2Cl)c1,4.52,> 100,25.9,> 100,3.51,> 100,9.21,> 100,4.56,> 100,0.318,3.11,2.36,37.5,3.62,14.8,2.42,5.91,2.22,95.7
COc1cc2c(c(OC)c1OC)-c1c(cc3c(c1OC)OCO3)CC(C)C(C)(O)C2OC(=O)c1ccccc1 (stereo not drawn),,57.8,,> 100,,> 100,,> 100,,> 100,,79.3,,> 100,,> 100,,48.7,,29.3
CN1CCN(c2cc3nc4ccccc4n(-c4ccc(Cl)cc4)c-3cc2=N)CC1,10.6,49.9,19.2,39.2,23.3,65,15.9,32.9,> 100,> 100,12.1,35.1,2.78,16.7,16.3,32.7,,4.35,12.8,32
